Assay results taken from patent publication US20050238635A1, “Use of hyrogen peroxide producting enzyme for treatment of otitis media” (priority 2002, published 2005).

Key:
M catarrhalis (Mcat-res) = test: broth test of alpha 4 co-cultured with resistant M catarrhalis (Mcat-res), with amitrole; type: cell-based; settings: amitrole 50 mM in broth, 7 hours, 37° C.
Experimental: Amitrole is an irreversible catalase inhibitor [12]. If an increased or more efficient catalase production was involved in the development of resistance of M cararrhalis to an isolate of AHS. This resistance would be reverted by addition of amitrole. In broth tests with alpha 4 together with M catarrhalis in 5 ml broth, 50 mM (0.1 ml) of amitrole (3-amino-1,2,4-triazole), was added into the solution and incubated for 7 hours at 37° C. in air with intermittent shaking. The isolate of M catarrhalis (Mcat-res) had developed resistance against alpha 4 after co-culturing in broth. CFU counts were calculated at start and after 7 hours of incubation. Alpha 4 with M catarrhalis in broth without amitrole, broth and M catarrhalis alone and M catarrhalis alone with amitrole in broth served as controls.

[1] = trypsin tested together with hydrogen peroxide for catalase effect; type: biochemical
H influenzae = test: filtrate test: inhibitory effect of cell-free PBS filtrate of AHS on growth (CFU) of H influenzae; type: cell-based
Experimental: Numbers of colony forming units (CFU) were counted after serial dilutions in PBS and growth over night at 37° C. in air. Identification of the bacteria was based on different morphology of the isolates growing on the agar plates. AHS and M catarrhalis were grown on agar plates with 7% human blood and McLeod plates were used when H influenzae was assayed.
To achieve a filtrate with inhibitory activity, about 10^6 CFU of AHS were inoculated in 4 vials, each containing 15 ml of broth and incubated for 12 hours. The suspension was then centrifuged at 3000 rpm for 15 min and the supernatant was thrown away. The bacteria were transferred into one vial and two ml of phosphate buffered saline (PBS) was added and incubated at 37° C. for 5 hours. The suspension was then passed through a 0.2 μm sterile filter to remove the bacteria. Otitis media pathogens (0.1 ml) were then added to the filtrate (1 ml) and incubated at 37° C. The controls were incubated in fresh PBS.
Catalase is a specific enzyme catalyzing the conversion of H2O2 into O2 and H2O. This reaction proceeds rapidly. Purified catalase from human erythrocytes (>30.000U/mg) was used in the assays. The assays were performed as described above in the filtrate tests, with the exception that catalase, 1000 U/ml (=0.01 ml), was added to the vials with filtrate and PBS. […]

## Nc1nc[nH]n1 [amitrole, 3-amino-1,2,4-triazole]
M catarrhalis (Mcat-res)
  sensitivity of resistant M catarrhalis to inhibition of alpha 4 when amitrole added: became sensitive

## Trypsin
[1]
  catalase effect: no catalase effect
H influenzae; trypsin 2.5 mg/ml, filtrate incubated with H influenzae
  reversal of the inhibitory effect of the cell-free filtrate of alpha 89: only slightly reverse

B1: Catalase: Purified catalase from human erythrocytes; enzyme catalyzing the conversion of H2O2 into O2 and H2O (protein, UniProt P04040 2-527, looked up)
Catalase: ADSRDPASDQMQHWKEQRAAQKADVLTTGAGNPVGDKLNVITVGPRGPLLVQDVVFTDEMAHFDRERIPERVVHAKGAGAFGYFEVTHDITKYSKAKVFEHIGKKTPIAVRFSTVAGESGSADTVRDPRGFAVKFYTEDGNWDLVGNNTPIFFIRDPILFPSFIHSQKRNPQTHLKDPDMVWDFWSLRPESLHQVSFLFSDRGIPDGHRHMNGYGSHTFKLVNANGEAVYCKFHYKTDQGIKNLSVEDAARLSQEDPDYGIRDLFNAIATGKYPSWTFYIQVMTFNQAETFPFNPFDLTKVWPHKDYPLIPVGKLVLNRNPVNYFAEVEQIAFDPSNMPPGIEASPDKMLQGRLFAYPDTHRHRLGPNYLHIPVNCPYRARVANYQRDGPMCMQDNQGGAPNYYPNSFGAPEQQPSALEHSIQYSGEVRRFNTANDDNVTQVRAFYVNVLNEEQRKRLCENIAGHLKDAQIFIQKKAVKNFTEVHPDYGSHIQALLDKYNAEKPKNAIHTFVQSGSHLAAREKANL
H influenzae; catalase 1000U/ml, filtrate of alpha 89 incubated with H influenzae
  reversal of the inhibitory effect of the cell-free filtrate of AHS: completely reverse
